According to article PMC5428509, “Irreversible inhibition of BTK kinase by a novel highly selective inhibitor CHMFL-BTK-11 suppresses inflammatory response in rheumatoid arthritis model” (Scientific Reports, 2017):

What was measured:
Assay in all cases: biochemical
Set-up in all cases: KinomeScan competition binding panel (DiscoveRx), percent of control at 1 uM
Conditions in all cases: read-out: Percent Control
GCN2(Kin.Dom.2,S808G) = target: T1, GCN2(Kin.Dom.2,S808G) (Homo sapiens, UniProt Q9P2K8, S808G)
T1 construct: gene EIF2AK4; Kin.Dom.2
T1 sequence (Q9P2K8 whole entry S808G): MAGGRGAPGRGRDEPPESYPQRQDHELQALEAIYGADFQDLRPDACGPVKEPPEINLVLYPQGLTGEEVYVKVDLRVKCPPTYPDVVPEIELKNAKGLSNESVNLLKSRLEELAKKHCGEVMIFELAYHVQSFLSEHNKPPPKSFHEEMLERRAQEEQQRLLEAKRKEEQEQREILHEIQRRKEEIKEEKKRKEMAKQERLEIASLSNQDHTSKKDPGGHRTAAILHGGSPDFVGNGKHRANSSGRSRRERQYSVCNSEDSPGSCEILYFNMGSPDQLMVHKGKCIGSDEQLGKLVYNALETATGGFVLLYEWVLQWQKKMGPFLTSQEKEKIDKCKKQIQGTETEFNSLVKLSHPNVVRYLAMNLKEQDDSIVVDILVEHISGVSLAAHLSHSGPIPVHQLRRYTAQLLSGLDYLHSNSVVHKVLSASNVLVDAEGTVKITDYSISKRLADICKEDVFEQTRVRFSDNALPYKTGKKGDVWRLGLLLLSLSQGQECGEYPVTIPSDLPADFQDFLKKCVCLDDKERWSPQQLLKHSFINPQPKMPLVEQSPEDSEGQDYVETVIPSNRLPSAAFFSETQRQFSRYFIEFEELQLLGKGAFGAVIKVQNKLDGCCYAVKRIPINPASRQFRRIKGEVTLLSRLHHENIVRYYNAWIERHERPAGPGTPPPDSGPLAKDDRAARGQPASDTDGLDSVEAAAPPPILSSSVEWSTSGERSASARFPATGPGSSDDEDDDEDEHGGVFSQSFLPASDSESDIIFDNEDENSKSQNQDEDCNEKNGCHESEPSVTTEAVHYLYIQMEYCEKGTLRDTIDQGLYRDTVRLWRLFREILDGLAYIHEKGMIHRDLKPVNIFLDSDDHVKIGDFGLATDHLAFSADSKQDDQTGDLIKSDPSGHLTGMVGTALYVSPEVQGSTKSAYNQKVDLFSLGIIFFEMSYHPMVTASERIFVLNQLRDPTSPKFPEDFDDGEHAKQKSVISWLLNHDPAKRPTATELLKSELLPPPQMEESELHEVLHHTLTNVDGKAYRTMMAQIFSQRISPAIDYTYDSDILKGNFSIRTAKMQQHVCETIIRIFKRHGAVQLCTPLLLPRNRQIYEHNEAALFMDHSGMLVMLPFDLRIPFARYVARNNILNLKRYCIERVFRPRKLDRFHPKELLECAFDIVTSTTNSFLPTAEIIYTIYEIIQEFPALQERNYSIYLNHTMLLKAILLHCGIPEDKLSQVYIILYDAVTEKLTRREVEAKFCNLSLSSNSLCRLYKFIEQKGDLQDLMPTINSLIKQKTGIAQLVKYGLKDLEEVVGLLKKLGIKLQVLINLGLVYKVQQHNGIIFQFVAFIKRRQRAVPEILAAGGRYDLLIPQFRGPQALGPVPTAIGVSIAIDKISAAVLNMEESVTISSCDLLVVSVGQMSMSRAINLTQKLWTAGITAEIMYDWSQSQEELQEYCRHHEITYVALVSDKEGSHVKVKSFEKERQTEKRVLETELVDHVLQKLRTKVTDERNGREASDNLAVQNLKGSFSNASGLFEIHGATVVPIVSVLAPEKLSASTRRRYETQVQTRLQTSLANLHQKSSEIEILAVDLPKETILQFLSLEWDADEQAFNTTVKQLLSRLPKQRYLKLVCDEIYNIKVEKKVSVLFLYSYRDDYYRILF
How it was run: (§1)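 KinomeScan technology used to profile binding across a panel of 456 kinases and mutants.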

IRAK3 = IRAK3 (Homo sapiens, UniProt Q9Y616)
How it was run: as §1

[1] = target: T2, ABL1(E255K)-phosphorylated (Homo sapiens, UniProt P00519, E255K)
T2 construct: phosphorylated
How it was run: as §1

ERK2 = target: T3, ERK2 (Homo sapiens, UniProt P28482)
T3 construct: gene MAPK1
How it was run: as §1

AKT2 = AKT2 (Homo sapiens, UniProt P31751)
Chain of AKT2 (P31751 whole entry): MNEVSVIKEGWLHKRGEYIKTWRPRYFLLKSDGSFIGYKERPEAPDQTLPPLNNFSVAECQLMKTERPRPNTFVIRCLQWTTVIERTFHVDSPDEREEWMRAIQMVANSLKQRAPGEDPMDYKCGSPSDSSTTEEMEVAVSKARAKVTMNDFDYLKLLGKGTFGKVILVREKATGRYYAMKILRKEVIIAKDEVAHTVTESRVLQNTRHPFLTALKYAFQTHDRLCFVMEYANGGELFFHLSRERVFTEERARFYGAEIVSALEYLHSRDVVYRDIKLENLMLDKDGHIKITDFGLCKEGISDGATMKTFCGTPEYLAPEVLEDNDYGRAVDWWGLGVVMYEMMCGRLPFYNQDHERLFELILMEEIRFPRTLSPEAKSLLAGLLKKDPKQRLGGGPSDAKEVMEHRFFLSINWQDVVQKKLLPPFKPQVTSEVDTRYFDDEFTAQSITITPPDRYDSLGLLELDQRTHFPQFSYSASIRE
How it was run: as §1

BTK = BTK (Homo sapiens, UniProt Q06187)
How it was run: as §1

PRKCH = PRKCH (Homo sapiens, UniProt P24723)
How it was run: as §1

EPHB2 = EPHB2 (Homo sapiens, UniProt P29323)
How it was run: as §1

PCTK2 = target: T4, PCTK2 (Homo sapiens, UniProt Q00537)
T4 construct: gene CDK17
How it was run: as §1

PLK1 = PLK1 (Homo sapiens, UniProt P53350)
How it was run: as §1

MARK4 = MARK4 (Homo sapiens, UniProt Q96L34)
Chain of MARK4 (Q96L34 whole entry): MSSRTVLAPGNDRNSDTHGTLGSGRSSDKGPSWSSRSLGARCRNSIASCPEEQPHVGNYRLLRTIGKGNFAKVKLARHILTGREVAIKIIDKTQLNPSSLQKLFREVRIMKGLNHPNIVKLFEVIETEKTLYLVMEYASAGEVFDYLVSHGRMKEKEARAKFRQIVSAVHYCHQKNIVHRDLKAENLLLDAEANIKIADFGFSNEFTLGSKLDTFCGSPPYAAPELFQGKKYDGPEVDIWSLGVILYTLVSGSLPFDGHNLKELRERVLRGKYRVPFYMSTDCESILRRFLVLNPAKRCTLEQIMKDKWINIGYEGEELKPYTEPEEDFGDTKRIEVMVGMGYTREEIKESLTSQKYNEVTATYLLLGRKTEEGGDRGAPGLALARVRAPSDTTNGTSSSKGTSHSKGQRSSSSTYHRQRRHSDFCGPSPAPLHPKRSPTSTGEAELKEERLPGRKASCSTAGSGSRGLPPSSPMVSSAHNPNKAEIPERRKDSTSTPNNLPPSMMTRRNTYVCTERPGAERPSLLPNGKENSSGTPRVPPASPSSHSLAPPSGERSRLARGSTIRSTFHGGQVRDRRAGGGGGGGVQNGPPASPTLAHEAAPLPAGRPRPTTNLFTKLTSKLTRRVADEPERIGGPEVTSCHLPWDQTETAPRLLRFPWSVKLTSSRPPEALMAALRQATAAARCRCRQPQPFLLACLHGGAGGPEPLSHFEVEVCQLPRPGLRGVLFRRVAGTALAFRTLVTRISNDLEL
How it was run: as §1

CDC2L1 = target: T5, CDC2L1 (Homo sapiens, UniProt P21127)
T5 construct: gene CDK11B
How it was run: as §1

PIK3CA = PIK3CA (Homo sapiens, UniProt P42336)
How it was run: as §1

PIK3CA(M1043I) = PIK3CA(M1043I) (Homo sapiens, UniProt P42336, M1043I)
How it was run: as §1

CAMK2A = CAMK2A (Homo sapiens, UniProt Q9UQM7)
How it was run: as §1

PLK3 = PLK3 (Homo sapiens, UniProt Q9H4B4)
How it was run: as §1

MLK1 = target: T6, MLK1 (Homo sapiens, UniProt P80192)
T6 construct: gene MAP3K9
T6 sequence (P80192 whole entry): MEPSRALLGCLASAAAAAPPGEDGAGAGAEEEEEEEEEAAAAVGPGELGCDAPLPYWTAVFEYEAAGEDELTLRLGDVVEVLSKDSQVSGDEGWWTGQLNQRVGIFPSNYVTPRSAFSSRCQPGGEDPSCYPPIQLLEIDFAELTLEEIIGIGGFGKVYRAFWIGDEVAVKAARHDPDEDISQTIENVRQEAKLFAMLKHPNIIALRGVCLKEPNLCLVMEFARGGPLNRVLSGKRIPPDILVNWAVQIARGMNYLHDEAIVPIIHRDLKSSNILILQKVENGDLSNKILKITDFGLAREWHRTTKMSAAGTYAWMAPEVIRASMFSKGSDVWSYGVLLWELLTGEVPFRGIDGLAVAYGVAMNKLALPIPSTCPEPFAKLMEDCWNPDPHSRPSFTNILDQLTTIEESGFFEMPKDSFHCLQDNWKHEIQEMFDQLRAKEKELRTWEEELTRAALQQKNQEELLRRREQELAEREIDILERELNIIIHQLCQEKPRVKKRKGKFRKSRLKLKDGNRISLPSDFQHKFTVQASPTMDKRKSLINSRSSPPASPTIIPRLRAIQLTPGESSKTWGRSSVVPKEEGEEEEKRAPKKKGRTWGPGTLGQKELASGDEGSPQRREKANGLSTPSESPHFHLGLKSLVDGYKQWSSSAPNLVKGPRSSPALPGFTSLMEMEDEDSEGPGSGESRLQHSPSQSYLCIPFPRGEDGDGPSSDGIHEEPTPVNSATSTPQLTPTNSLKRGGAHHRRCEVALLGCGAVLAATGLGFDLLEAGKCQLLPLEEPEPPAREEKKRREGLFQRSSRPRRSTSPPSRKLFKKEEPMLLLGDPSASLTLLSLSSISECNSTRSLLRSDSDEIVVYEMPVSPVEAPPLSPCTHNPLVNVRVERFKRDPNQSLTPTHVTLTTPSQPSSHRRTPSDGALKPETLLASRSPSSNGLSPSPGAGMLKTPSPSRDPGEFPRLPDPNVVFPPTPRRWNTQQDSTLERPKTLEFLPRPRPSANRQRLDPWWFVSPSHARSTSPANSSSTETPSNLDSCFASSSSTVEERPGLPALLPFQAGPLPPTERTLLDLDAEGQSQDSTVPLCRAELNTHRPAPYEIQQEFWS
How it was run: as §1

EPHA2 = EPHA2 (Homo sapiens, UniProt P29317)
Chain of EPHA2 (P29317 whole entry): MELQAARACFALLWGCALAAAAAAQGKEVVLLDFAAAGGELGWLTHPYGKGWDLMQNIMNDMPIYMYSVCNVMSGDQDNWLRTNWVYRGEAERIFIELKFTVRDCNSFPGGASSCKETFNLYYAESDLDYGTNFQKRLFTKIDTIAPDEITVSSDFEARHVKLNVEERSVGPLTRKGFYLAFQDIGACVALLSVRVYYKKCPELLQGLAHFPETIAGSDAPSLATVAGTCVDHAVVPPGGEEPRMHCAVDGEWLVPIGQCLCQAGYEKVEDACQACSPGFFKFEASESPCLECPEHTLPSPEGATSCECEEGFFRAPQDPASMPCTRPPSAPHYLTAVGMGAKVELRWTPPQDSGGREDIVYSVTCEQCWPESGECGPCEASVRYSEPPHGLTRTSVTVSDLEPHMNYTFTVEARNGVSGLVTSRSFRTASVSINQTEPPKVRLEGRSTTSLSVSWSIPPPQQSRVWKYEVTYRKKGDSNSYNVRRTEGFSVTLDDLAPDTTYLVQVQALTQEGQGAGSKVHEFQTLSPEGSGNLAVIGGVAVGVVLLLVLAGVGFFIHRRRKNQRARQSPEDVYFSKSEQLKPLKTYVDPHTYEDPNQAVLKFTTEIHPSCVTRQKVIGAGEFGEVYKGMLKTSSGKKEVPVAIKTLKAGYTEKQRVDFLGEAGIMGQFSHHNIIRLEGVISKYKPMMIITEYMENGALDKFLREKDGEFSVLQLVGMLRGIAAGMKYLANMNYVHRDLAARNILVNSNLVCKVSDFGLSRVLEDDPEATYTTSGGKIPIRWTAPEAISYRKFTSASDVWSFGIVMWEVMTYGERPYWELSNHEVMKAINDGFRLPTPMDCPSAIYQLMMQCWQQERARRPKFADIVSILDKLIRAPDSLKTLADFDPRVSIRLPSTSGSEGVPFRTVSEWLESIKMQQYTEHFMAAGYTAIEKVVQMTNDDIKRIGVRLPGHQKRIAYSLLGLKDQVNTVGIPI
How it was run: as §1

NEK10 = NEK10 (Homo sapiens, UniProt Q6ZWH5)
How it was run: as §1

RIOK2 = RIOK2 (Homo sapiens, UniProt Q9BVS4)
How it was run: as §1

CSF1R = CSF1R (Homo sapiens, UniProt P07333)
How it was run: as §1

KIT = KIT (Homo sapiens, UniProt P10721)
How it was run: as §1

CDK11 = target: T7, CDK11 (Homo sapiens, UniProt Q9BWU1)
T7 construct: gene CDK19
How it was run: as §1

ICK = target: T8, ICK (Homo sapiens, UniProt Q9UPZ9)
T8 construct: gene CILK1
How it was run: as §1

CDKL3 = CDKL3 (Homo sapiens, UniProt Q8IVW4)
How it was run: as §1

SMILES: C=CC(=O)Nc1cc(-n2c(=O)ccc3cnc4ccc(-n5cccn5)cc4c32)ccc1C [CHMFL-BTK-11]
- remaining binding at 1 µM (GCN2(Kin.Dom.2,S808G)): 100%
- remaining binding at 1 µM (IRAK3): 98%
- remaining binding at 1 µM [1]: 92%
- remaining binding at 1 µM (ERK2): 100%
- remaining binding at 1 µM (AKT2): 100%
- remaining binding at 1 µM (BTK): 8.2%
- remaining binding at 1 µM (PRKCH): 84%
- remaining binding at 1 µM (EPHB2): 89%
- remaining binding at 1 µM (PCTK2): 94%
- remaining binding at 1 µM (PLK1): 99%
- remaining binding at 1 µM (MARK4): 79%
- remaining binding at 1 µM (CDC2L1): 100%
- remaining binding at 1 µM (PIK3CA): 100%
- remaining binding at 1 µM (PIK3CA(M1043I)): 99%
- remaining binding at 1 µM (CAMK2A): 100%
- remaining binding at 1 µM (PLK3): 100%
- remaining binding at 1 µM (MLK1): 100%
- remaining binding at 1 µM (EPHA2): 88%
- remaining binding at 1 µM (NEK10): 97%
- remaining binding at 1 µM (RIOK2): 87%
- remaining binding at 1 µM (CSF1R): 91%
- remaining binding at 1 µM (KIT): 100%
- remaining binding at 1 µM (CDK11): 89%
- remaining binding at 1 µM (ICK): 100%
- remaining binding at 1 µM (CDKL3): 90%
